Data as given in patent publication US10597388B2, “Pyridazinone herbicides” (FMC CORPORATION, priority 2014, dated 2020).

Assays:
Test in all cases: Test D controlled growth environment herbicide test, pre- and postemergence
Assay type in all cases: in vivo
[1] = system: barley, spring (spring barley, Hordeum vulgare)
Method in brief: (§1)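 Pre-emergence: seeds sown in silt loam soil were sprayed with compound in a non-phytotoxic solvent mix containing surfactant. Post-emergence: plants at 2 to 18 cm (1- to 4-leaf stage) in peat moss/vermiculite medium got the same formulation. Visual 0–100 rating versus controls after 14 to 21 d.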

[2] = system: barley, winter (winter barley, Hordeum vulgare)
Method in brief: as §1

[3] = system: bluegrass (annual bluegrass, Poa annua)
Method in brief: as §1

[4] = system: buckwheat, wild (wild buckwheat, Polygonum convolvulus)
Method in brief: as §1

[5] = system: canarygrass (Phalaris minor)
Method in brief: as §1

[6] = system: field poppy (Papaver rhoeas)
Method in brief: as §1

[7] = system: foxtail, green (green foxtail, Setaria viridis)
Method in brief: as §1

[8] = system: galium (catchweed bedstraw, Galium aparine)
Method in brief: as §1

[9] = system: mustard, wild (wild mustard, Sinapis arvensis)
Method in brief: as §1

[10] = system: oat, wild (wild oat, Avena fatua)
Method in brief: as §1

[11] = system: oilseed rape (Brassica napus)
Method in brief: as §1

[12] = system: pigweed (Amaranthus retroflexus)
Method in brief: as §1

[13] = system: wheat, spring (spring wheat, Triticum aestivum)
Method in brief: as §1

[14] = Postemergence, 31 g ai/ha, scale 0 to 100 (0 no effect, 100 complete control)
[15] = Postemergence, 125 g ai/ha, visual rating on scale 0 (no effect) to 100 (complete control), 14 to 21 d
[16] = Postemergence, 250 g ai/ha, scale 0 to 100 (0 no effect, 100 complete control)
[17] = Preemergence, 62 g ai/ha, scale 0 to 100 (0 no effect, 100 complete control)
[18] = Preemergence, 125 g ai/ha, scale 0 to 100 (0 no effect, 100 complete control)
[19] = Preemergence, 250 g ai/ha, scale 0 to 100, 0 no effect, 100 complete control
[20] = postemergence, 62 g ai/ha, scale 0 to 100, 0 no effect, 100 complete control

With `CCc1sc2ccc(C)cc2c1-c1c(O)c(C)nn(C)c1=O` [Compound 47] the “Barley, Spring plant response rating” value [1, 14] was 0, the “Plant response rating, Barley, Spring” value [1, 15] was 0 and the “Plant response rating, Barley, Spring” value [1, 16] was 0. For the same molecule, the “Plant response rating (scale of 0 to 100), Barley, Spring” value ([1]; Preemergence, 31 g ai/ha) was 0, the “Plant response rating, Barley, Spring” value [1, 17] was 5 and the “Plant response rating, Barley, Spring” value [1, 18] was 15. For the same molecule, the “Barley, Spring plant response rating” value [1, 19] was 15, the “Plant response rating, Barley, Spring” value [1, 20] was 0 and the “Barley, Winter plant response rating” value [2, 14] was 10. The “Plant response rating, Barley, Winter” value [2, 15] was 15, the “Plant response rating, Barley, Winter” value [2, 16] was 15 and the “Plant response rating (scale of 0 to 100), Barley, Winter” value ([2]; Preemergence, 31 g ai/ha) was 0. The “Plant response rating, Barley, Winter” value [2, 17] was 0, the “Plant response rating, Barley, Winter” value [2, 18] was 5 and the “Barley, Winter plant response rating” value [2, 19] was 10. For the same molecule, the “Plant response rating, Barley, Winter” value [2, 20] was 10, the “Bluegrass plant response rating” value [3, 14] was 5 and the “Plant response rating, Bluegrass” value [3, 15] was 10. For the same molecule, the “Plant response rating, Bluegrass” value [3, 16] was 15, the “Plant response rating (scale of 0 to 100), Bluegrass” value ([3]; Preemergence, 31 g ai/ha) was 0 and the “Plant response rating, Bluegrass” value [3, 17] was 20. For the same molecule, the “Plant response rating, Bluegrass” value [3, 18] was 20, the “Bluegrass plant response rating” value [3, 19] was 20 and the “Plant response rating, Bluegrass” value [3, 20] was 10. The “Buckwheat, Wild plant response rating” value [4, 14] was 60, the “Plant response rating, Buckwheat, Wild” value [4, 15] was 90 and the “Plant response rating, Buckwheat, Wild” value [4, 16] was 100. For the same molecule, the “Plant response rating (scale of 0 to 100), Buckwheat, Wild” value ([4]; Preemergence, 31 g ai/ha) was 70, the “Plant response rating, Buckwheat, Wild” value [4, 17] was 60 and the “Plant response rating, Buckwheat, Wild” value [4, 18] was 70. The “Plant response rating, Buckwheat, Wild” value [4, 19] was 85, the “Plant response rating, Buckwheat, Wild” value [4, 20] was 75 and the “Canarygrass plant response rating” value [5, 14] was 0. The “Plant response rating, Canarygrass” value [5, 15] was 0, the “Plant response rating, Canarygrass” value [5, 16] was 0 and the “Plant response rating (scale of 0 to 100), Canarygrass” value ([5]; Preemergence, 31 g ai/ha) was 0. The “Plant response rating, Canarygrass” value [5, 17] was 0, the “Plant response rating, Canarygrass” value [5, 18] was 0 and the “Plant response rating, Canarygrass” value [5, 19] was 5. The “Plant response rating, Canarygrass” value [5, 20] was 0, the “Field Poppy plant response rating” value [6, 14] was 80 and the “Plant response rating, Field Poppy” value [6, 15] was 100. For the same molecule, the “Plant response rating, Field Poppy” value [6, 16] was 100, the “Plant response rating (scale of 0 to 100), Field Poppy” value ([6]; Preemergence, 31 g ai/ha) was 60 and the “Plant response rating, Field Poppy” value [6, 17] was 100. For the same molecule, the “Plant response rating, Field Poppy” value [6, 18] was 100, the “Plant response rating, Field Poppy” value [6, 19] was 100 and the “Plant response rating, Field Poppy” value [6, 20] was 100. For the same molecule, the “Foxtail, Green plant response rating” value [7, 14] was 50, the “Plant response rating, Foxtail, Green” value [7, 15] was 70 and the “Plant response rating, Foxtail, Green” value [7, 16] was 80. For the same molecule, the “Plant response rating (scale of 0 to 100), Foxtail, Green” value ([7]; Preemergence, 31 g ai/ha) was 0, the “Plant response rating, Foxtail, Green” value [7, 17] was 25 and the “Plant response rating, Foxtail, Green” value [7, 18] was 60. For the same molecule, the “Plant response rating, Foxtail, Green” value [7, 19] was 100, the “Plant response rating, Foxtail, Green” value [7, 20] was 60 and the “Galium plant response rating” value [8, 14] was 65. For the same molecule, the “Plant response rating, Galium” value [8, 15] was 75, the “Plant response rating, Galium” value [8, 16] was 80 and the “Plant response rating (scale of 0 to 100), Galium” value ([8]; Preemergence, 31 g ai/ha) was 85. For the same molecule, the “Plant response rating, Galium” value [8, 17] was 95, the “Plant response rating, Galium” value [8, 18] was 100 and the “Plant response rating, Galium” value [8, 19] was 100. For the same molecule, the “Plant response rating, Galium” value [8, 20] was 75, the “Mustard, Wild plant response rating” value [9, 14] was 0 and the “Plant response rating, Mustard, Wild” value [9, 15] was 15. The “Plant response rating, Mustard, Wild” value [9, 16] was 25, the “Plant response rating (scale of 0 to 100), Mustard, Wild” value ([9]; Preemergence, 31 g ai/ha) was 10 and the “Plant response rating, Mustard, Wild” value [9, 17] was 20. For the same molecule, the “Plant response rating, Mustard, Wild” value [9, 18] was 40, the “Plant response rating, Mustard, Wild” value [9, 19] was 65 and the “Plant response rating, Mustard, Wild” value [9, 20] was 0. The “Oat, Wild plant response rating” value [10, 14] was 10, the “Plant response rating, Oat, Wild” value [10, 15] was 20 and the “Plant response rating, Oat, Wild” value [10, 16] was 40. The “Plant response rating (scale of 0 to 100), Oat, Wild” value ([10]; Preemergence, 31 g ai/ha) was 10, the “Plant response rating, Oat, Wild” value [10, 17] was 20 and the “Plant response rating, Oat, Wild” value [10, 18] was 35. The “Plant response rating, Oat, Wild” value [10, 19] was 40, the “Plant response rating, Oat, Wild” value [10, 20] was 15 and the “Oilseed Rape plant response rating” value [11, 14] was 20. For the same molecule, the “Plant response rating, Oilseed Rape” value [11, 15] was 55, the “Plant response rating, Oilseed Rape” value [11, 16] was 70 and the “Plant response rating (scale of 0 to 100), Oilseed Rape” value ([11]; Preemergence, 31 g ai/ha) was 0. For the same molecule, the “Plant response rating, Oilseed Rape” value [11, 17] was 0, the “Plant response rating, Oilseed Rape” value [11, 18] was 10 and the “Plant response rating, Oilseed Rape” value [11, 19] was 15. The “Plant response rating, Oilseed Rape” value [11, 20] was 20, the “Pigweed plant response rating” value [12, 14] was 75 and the “Plant response rating, Pigweed” value [12, 15] was 100. The “Plant response rating, Pigweed” value [12, 16] was 100, the “Plant response rating (scale of 0 to 100), Pigweed” value ([12]; Preemergence, 31 g ai/ha) was 70 and the “Plant response rating, Pigweed” value [12, 17] was 100. For the same molecule, the “Plant response rating, Pigweed” value [12, 18] was 100, the “Plant response rating, Pigweed” value [12, 19] was 100 and the “Plant response rating, Pigweed” value [12, 20] was 75. For the same molecule, the “Wheat, Spring plant response rating” value [13, 14] was 10, the “Plant response rating, Wheat, Spring” value [13, 15] was 15 and the “Plant response rating, Wheat, Spring” value [13, 16] was 15. The “Plant response rating (scale of 0 to 100), Wheat, Spring” value ([13]; Preemergence, 31 g ai/ha) was 5, the “Plant response rating, Wheat, Spring” value [13, 17] was 5 and the “Plant response rating, Wheat, Spring” value [13, 18] was 15. For the same molecule, the “Plant response rating, Wheat, Spring” value [13, 19] was 15 and the “Plant response rating, Wheat, Spring” value [13, 20] was 10.
